Measured values from patent US6489469B1, “Method for storing or transporting erythritol solution” (Nikken Chemicals Co., Ltd., priority 1999, dated 2002).

Experiments:
[1] = test system: Aspergillus flavus IFO 6343; experiment: Viable Count of Aspergillus flavus IFO 6343 in Erythritol Solution; format: cell-based
Experimental: (§1) Erythritol solutions of respective concentrations in the range of from 30 to 60% were prepared. To these were inoculated Staphylococcus aureus IFO 13276, Bacillus subtilis IFO 3134, and Escherichia coli IFO 3972 as bacteria, Candida albicans IFO 1549 and Saccharomyces cerevisiae ATCC 9763 as yeasts, Aspergillus niger IFO 6342, Aspergillus flavus IFO 6343, and Penicillium funiculosum IFO 6345 as fungi, respectively, in a population (concentration) of 10,000 cells/mL or more. After the inoculation, the solutions were stored at 30, 37, 45, 50, or 60° C., respectively, for 56 days and the number of viable cell was determined daily. The determination of the number of viable cell was performed by a method of coating 0.1 mL of appropriately diluted sample cultivation on an agar plate and cultivating and counting the number of viable cell (the number of colony) that grew after the cultivation.

[2] = test system: Saccharomyces cerevisiae ATCC 9763; experiment: Viable Count of Saccharomyces cerevisiae ATCC 9763 in Erythritol Solution; format: cell-based
Experimental: as §1

OC[C@@H](O)[C@@H](O)CO [Erythritol Solution, erythritol]
prevented from growing: growth of the microbes ([1]; temperature of 50° C. or more)
1600 cells/mL: The Number of Viable Cell ([2]; 45° C., 50% w/w, Day 3)
0 cells/mL: The Number of Viable Cell ([1]; 45° C., 30% w/w, Day 28) | The Number of Viable Cell ([1]; 45° C., 30% w/w, Day 56) | The Number of Viable Cell ([1]; 45° C., 40% w/w, Day 28) | The Number of Viable Cell ([1]; 45° C., 40% w/w, Day 56) | The Number of Viable Cell ([1]; 45° C., 50% w/w, Day 14) | The Number of Viable Cell ([1]; 45° C., 50% w/w, Day 28) | The Number of Viable Cell ([1]; 45° C., 50% w/w, Day 56) | The Number of Viable Cell ([1]; 50° C., 30% w/w, Day 3) | The Number of Viable Cell ([1]; 50° C., 30% w/w, Day 7) | The Number of Viable Cell ([1]; 50° C., 30% w/w, Day 14) | The Number of Viable Cell ([1]; 50° C., 30% w/w, Day 28) | The Number of Viable Cell ([1]; 50° C., 30% w/w, Day 56) | The Number of Viable Cell ([1]; 50° C., 40% w/w, Day 3) | The Number of Viable Cell ([1]; 50° C., 40% w/w, Day 7) | The Number of Viable Cell ([1]; 50° C., 40% w/w, Day 14) | The Number of Viable Cell ([1]; 50° C., 40% w/w, Day 28) | The Number of Viable Cell ([1]; 50° C., 40% w/w, Day 56) | The Number of Viable Cell ([1]; 50° C., 50% w/w, Day 3) | The Number of Viable Cell ([1]; 50° C., 50% w/w, Day 7) | The Number of Viable Cell ([1]; 50° C., 50% w/w, Day 14) | The Number of Viable Cell ([1]; 50° C., 50% w/w, Day 28) | The Number of Viable Cell ([1]; 50° C., 50% w/w, Day 56) | The Number of Viable Cell ([2]; 37° C., 30% w/w, Day 56) | The Number of Viable Cell ([2]; 37° C., 40% w/w, Day 56) | The Number of Viable Cell ([2]; 45° C., 30% w/w, Day 7) | The Number of Viable Cell ([2]; 45° C., 30% w/w, Day 14) | The Number of Viable Cell ([2]; 45° C., 30% w/w, Day 28) | The Number of Viable Cell ([2]; 45° C., 30% w/w, Day 56) | The Number of Viable Cell ([2]; 45° C., 40% w/w, Day 7) | The Number of Viable Cell ([2]; 45° C., 40% w/w, Day 14) | The Number of Viable Cell ([2]; 45° C., 40% w/w, Day 28) | The Number of Viable Cell ([2]; 45° C., 40% w/w, Day 56) | The Number of Viable Cell ([2]; 45° C., 50% w/w, Day 7) | The Number of Viable Cell ([2]; 45° C., 50% w/w, Day 14) | The Number of Viable Cell ([2]; 45° C., 50% w/w, Day 28) | The Number of Viable Cell ([2]; 45° C., 50% w/w, Day 56) | The Number of Viable Cell ([2]; 50° C., 30% w/w, Day 3) | The Number of Viable Cell ([2]; 50° C., 30% w/w, Day 7) | The Number of Viable Cell ([2]; 50° C., 30% w/w, Day 14) | The Number of Viable Cell ([2]; 50° C., 30% w/w, Day 28) | The Number of Viable Cell ([2]; 50° C., 30% w/w, Day 56)
≥ 10000 cells/mL: The Number of Viable Cell ([1]; 45° C., 30% w/w, Day 0) | The Number of Viable Cell ([1]; 45° C., 30% w/w, Day 3) | The Number of Viable Cell ([1]; 45° C., 30% w/w, Day 7) | The Number of Viable Cell ([1]; 45° C., 30% w/w, Day 14) | The Number of Viable Cell ([1]; 45° C., 40% w/w, Day 0) | The Number of Viable Cell ([1]; 45° C., 40% w/w, Day 3) | The Number of Viable Cell ([1]; 45° C., 40% w/w, Day 7) | The Number of Viable Cell ([1]; 45° C., 40% w/w, Day 14) | The Number of Viable Cell ([1]; 45° C., 50% w/w, Day 0) | The Number of Viable Cell ([1]; 45° C., 50% w/w, Day 3) | The Number of Viable Cell ([1]; 45° C., 50% w/w, Day 7) | The Number of Viable Cell ([1]; 50° C., 30% w/w, Day 0) | The Number of Viable Cell ([1]; 50° C., 40% w/w, Day 0) | The Number of Viable Cell ([1]; 50° C., 50% w/w, Day 0) | The Number of Viable Cell ([2]; 37° C., 30% w/w, Day 0) | The Number of Viable Cell ([2]; 37° C., 30% w/w, Day 3) | The Number of Viable Cell ([2]; 37° C., 30% w/w, Day 7) | The Number of Viable Cell ([2]; 37° C., 30% w/w, Day 14) | The Number of Viable Cell ([2]; 37° C., 30% w/w, Day 28) | The Number of Viable Cell ([2]; 37° C., 40% w/w, Day 0) | The Number of Viable Cell ([2]; 37° C., 40% w/w, Day 3) | The Number of Viable Cell ([2]; 37° C., 40% w/w, Day 7) | The Number of Viable Cell ([2]; 37° C., 40% w/w, Day 14) | The Number of Viable Cell ([2]; 45° C., 30% w/w, Day 0) | The Number of Viable Cell ([2]; 45° C., 40% w/w, Day 0) | The Number of Viable Cell ([2]; 45° C., 50% w/w, Day 0) | The Number of Viable Cell ([2]; 50° C., 30% w/w, Day 0) | The Number of Viable Cell ([2]; 50° C., 40% w/w, Day 0)
1480 cells/mL: The Number of Viable Cell ([2]; 45° C., 30% w/w, Day 3)
1130 cells/mL: The Number of Viable Cell ([2]; 37° C., 40% w/w, Day 28)
3 days: time after which microbes died ([1]; temperature of 50° C. or more)
1440 cells/mL: The Number of Viable Cell ([2]; 45° C., 40% w/w, Day 3)
